{"source": "paper PMC9030691", "about": "“Toxicokinetics of β-Amanitin in Mice and In Vitro Drug–Drug Interaction Potential” (Pharmaceutics, 2022)", "key": {"[1]": {"target": "T1, CYP2A6 (Homo sapiens, UniProt P11509)", "T1 construct": "from tissue; host or cells: ultrapooled human liver microsomes", "T1 sequence (P11509 whole entry)": "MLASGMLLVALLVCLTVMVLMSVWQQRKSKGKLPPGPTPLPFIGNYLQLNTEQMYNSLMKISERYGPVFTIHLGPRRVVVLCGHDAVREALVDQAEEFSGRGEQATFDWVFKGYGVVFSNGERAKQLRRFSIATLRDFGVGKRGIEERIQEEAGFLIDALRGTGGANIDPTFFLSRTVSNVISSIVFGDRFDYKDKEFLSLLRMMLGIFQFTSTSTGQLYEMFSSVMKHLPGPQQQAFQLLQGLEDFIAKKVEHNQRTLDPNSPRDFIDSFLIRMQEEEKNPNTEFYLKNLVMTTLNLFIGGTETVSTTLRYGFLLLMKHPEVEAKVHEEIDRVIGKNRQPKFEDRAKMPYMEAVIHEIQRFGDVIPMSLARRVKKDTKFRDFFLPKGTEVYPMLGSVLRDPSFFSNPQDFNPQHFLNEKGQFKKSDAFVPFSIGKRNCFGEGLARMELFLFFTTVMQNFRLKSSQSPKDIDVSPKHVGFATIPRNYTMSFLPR", "experiment": "CYP2A6 inhibition in human liver microsomes", "type": "in vitro ADME", "conditions": "ultrapooled human liver microsomes 0.2 mg/mL, 2.5 μM coumarin, β-amanitin 0.1–100 μM, pH 7.4, 37 °C, 15 min, LC-MS/MS, n = 3, read-out: IC50, CYP2A6 coumarin 7-hydroxylase", "procedure": "(§1) β-amanitin inhibition (IC50 values) of CYP1A2, CYP2A6, CYP2B6, CYP2C8, CYP2C9, CYP2C19, CYP2D6, and CYP3A4 enzyme activities in HLMs were evaluated using LC-MS/MS and CYP substrates as previously described. Each incubation mixture was made up to a volume of 100 μL including HLMs (0.2 mg/mL), 50 mM potassium phosphate buffer (pH 7.4), 1.0 mM NADPH, 10 mM magnesium chloride, various concentrations of β-amanitin (0.1–100 μM), a cocktail of seven CYP probe substrates (50 μM phenacetin for CYP1A2, 2.5 μM coumarin for CYP2A6, 2 μM amodiaquine for CYP2C8, 10 μM diclofenac for CYP2C9, 100 μM [S]-mephenytoin for CYP2C19, 5 μM bufuralol for CYP2D6, and 2.5 μM midazolam for CYP3A4 in acetonitrile), or 50 μM bupropion for CYP2B6. The reactions were initiated with NADPH followed by incubation in a shaking water bath at 37 °C for 15 min with or without 30 min preincubation with NADPH. Reactions were stopped with 50 μL of ice-cold methanol containing ^13C2, ^15N-acetaminophen and d9-1′-hydroxybufuralol (ISs). Incubation mixtures were centrifuged at 13,000× g for 8 min at 4 °C. An aliquot (5 μL) of the supernatant from the reaction mixture was analyzed by the previous LC-MS/MS method."}, "[2]": {"target": "T2, CYP2B6 (Homo sapiens, UniProt P20813)", "T2 construct": "from tissue; host or cells: ultrapooled human liver microsomes", "T2 sequence (P20813 1-491)": "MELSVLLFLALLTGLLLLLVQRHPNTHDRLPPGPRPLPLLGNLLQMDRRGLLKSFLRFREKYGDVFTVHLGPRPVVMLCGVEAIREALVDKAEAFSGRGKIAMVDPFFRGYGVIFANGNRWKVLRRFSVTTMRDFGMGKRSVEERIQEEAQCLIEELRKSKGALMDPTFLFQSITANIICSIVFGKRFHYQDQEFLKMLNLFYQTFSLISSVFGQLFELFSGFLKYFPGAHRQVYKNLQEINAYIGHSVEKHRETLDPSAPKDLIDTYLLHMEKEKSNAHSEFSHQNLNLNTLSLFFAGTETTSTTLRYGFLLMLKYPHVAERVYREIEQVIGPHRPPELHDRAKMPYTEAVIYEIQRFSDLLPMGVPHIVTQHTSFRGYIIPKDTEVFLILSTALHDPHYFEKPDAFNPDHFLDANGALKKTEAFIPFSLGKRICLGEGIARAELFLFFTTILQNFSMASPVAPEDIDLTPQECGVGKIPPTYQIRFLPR", "experiment": "CYP2B6 inhibition in human liver microsomes", "type": "in vitro ADME", "conditions": "ultrapooled human liver microsomes 0.2 mg/mL, 50 μM bupropion, β-amanitin 0.1–100 μM, pH 7.4, 37 °C, 15 min, LC-MS/MS, n = 3, read-out: IC50, CYP2B6 bupropion hydroxylase", "procedure": "as §1"}, "[3]": {"experiment": "Toxicokinetics after intravenous injection in mice", "type": "in vivo", "conditions": "male ICR mice; for MRT / Vd / clearance / half-life / AUC(0-inf) / AUC(0-t) / C0: mouse, mean ± SD; for MRT: AUMC/AUC; for Vd: CLxMRT, read-out: Vss; for clearance: Dose/AUC; for half-life: plasma elimination half-life; for AUC(0-inf) / AUC(0-t) / C0: LC-HRMS, non-compartmental", "procedure": "The Institutional Animal Care and Use Committee of the Catholic University of Korea (approval number, CUK-IACUC-2021-004; approval date, 21 March 2021) approved the study protocol. Male ICR mice (8 weeks of age, 27.4 ± 2.3 g) were purchased from Orient Bio Inc. (Seongnam, Korea). Mice were kept in plastic cages with unlimited access to a standard mouse diet (Orient Bio) and water before the experiments. For oral administration, mice were fasted for at least 12 h but allowed free access to water.\nβ-amanitin was dissolved in water and administered by iv bolus injection into the tail vein of mice at doses of 0.2 (n = 8), 0.4 (n = 6), and 0.8 (n = 7) mg/kg. Blood samples (approximately 15 μL) were collected from the retro-orbital plexus under light anesthesia with isoflurane at 0.033, 0.083, 0.25, 0.5, 0.75, 1, 1.5, 2, 3, 4, 6, and 8 h after drug administration.\nConcentrations of β-amanitin in biological samples were evaluated following our previous methodology. The standard calibration curves for β-amanitin in mouse plasma ranged from 0.5 to 500 ng/mL and were linear, with a correlation coefficient of 0.9952. The inter- and intra-day accuracy and precision fell within the acceptance criteria (3.1–14.6% of coefficients of variation (CVs) and 92.5–115.0% of accuracy). The extraction recovery and matrix effect of this analytical method were 82.8–88.9% and 93.0–98.6%.\nAn aliquot (5 μL) of plasma sample was mixed with 15 μL of 4′-hydroxydiclofenac (internal standard (IS), 5 ng/mL) in methanol and vortexed for 2 min. The mixture was centrifuged at 13,000× g at 4 °C for 5 min, and the supernatant was then transferred to an autosampler vial. An aliquot (5 μL) was injected into the LC-HRMS system for analysis.\nThe toxicokinetic parameters of β-amanitin were analyzed by non-compartmental analyses (WinNonlin, Pharsight; Mountain View, CA, USA) (Table 1). Data were expressed as mean ± standard deviations (SD). Comparisons of data between groups were performed using one-way ANOVA or Student t-test. Values of p < 0.05 were considered statistically significant."}, "[4]": {"conditions": "with 30 min NADPH preincubation"}, "[5]": {"conditions": "plasma, iv bolus 0.2 mg/kg, n = 8"}, "[6]": {"conditions": "plasma, iv bolus 0.4 mg/kg, n = 6"}, "[7]": {"conditions": "plasma, iv bolus 0.8 mg/kg, n = 7"}, "[8]": {"conditions": "iv bolus 0.2 mg/kg, plasma, n = 8"}, "[9]": {"conditions": "iv bolus 0.4 mg/kg, plasma, n = 6"}, "[10]": {"conditions": "iv bolus 0.8 mg/kg, plasma, n = 7"}}, "note": "Where “and” joins values, the source holds several entries; their conditions need not be identical. Equal entries are not always repeated. Where two headings read alike, the source gives them in different places."}
{"smiles": "CC[C@H](C)[C@@H]1NC(=O)CNC(=O)[C@@H]2Cc3c([nH]c4cc(O)ccc34)[S@+]([O-])C[C@H](NC(=O)CNC1=O)C(=O)N[C@@H](CC(=O)O)C(=O)N1C[C@H](O)C[C@H]1C(=O)N[C@@H]([C@@H](C)[C@@H](O)CO)C(=O)N2", "note": "[β-amanitin]", "values": [{"measurement": "IC50", "setting": "[1]; [4]", "result": 80.1, "unit": "µM"}, {"measurement": "IC50", "setting": "[1]; without NADPH preincubation", "result": 93.9, "unit": "µM"}, {"measurement": "IC50", "setting": "[2]; [4]", "result": 34.8, "unit": "µM"}, {"measurement": "IC50", "setting": "[2]; without NADPH preincubation", "result": 38, "unit": "µM"}, {"measurement": "t1/2, range over the iv doses", "setting": "[3]; iv 0.2, 0.4 and 0.8 mg/kg, plasma, range of the dose-group means", "result": "18.3–33.6 min and 18.3~33.6 min"}, {"measurement": "MRT", "setting": "[3]; [5]", "result": 22.8, "unit": "min"}, {"measurement": "Vd", "setting": "[3]; [5]", "result": "0.359 ± 0.0855", "unit": "L/kg"}, {"measurement": "clearance", "setting": "[3]; [5]", "result": "15.3 ± 2.5", "unit": "mL/min/kg"}, {"measurement": "MRT", "setting": "[3]; [6]", "result": 22.4, "unit": "min"}, {"measurement": "Vd", "setting": "[3]; [6]", "result": "0.366 ± 0.061", "unit": "L/kg"}, {"measurement": "clearance", "setting": "[3]; [6]", "result": "16.2 ± 2.4", "unit": "mL/min/kg"}, {"measurement": "MRT", "setting": "[3]; [7]", "result": 20.7, "unit": "min"}, {"measurement": "Vd", "setting": "[3]; [7]", "result": "0.39 ± 0.0771", "unit": "L/kg"}, {"measurement": "clearance", "setting": "[3]; [7]", "result": "18.8 ± 6", "unit": "mL/min/kg"}, {"measurement": "half-life", "setting": "[3]; iv bolus 0.2 mg/kg, n = 8", "result": "21.8 ± 8.3", "unit": "min"}, {"measurement": "AUC(0-inf)", "setting": "[3]; [8]", "result": 223, "unit": "ng·h/mL"}, {"measurement": "AUC(0-t)", "setting": "[3]; [8]", "result": 222, "unit": "ng·h/mL"}, {"measurement": "half-life", "setting": "[3]; iv bolus 0.4 mg/kg, n = 6", "result": "18.3 ± 3.1", "unit": "min"}, {"measurement": "AUC(0-inf)", "setting": "[3]; [9]", "result": 421, "unit": "ng·h/mL"}, {"measurement": "AUC(0-t)", "setting": "[3]; [9]", "result": 420, "unit": "ng·h/mL"}, {"measurement": "half-life", "setting": "[3]; iv bolus 0.8 mg/kg, n = 7", "result": "33.6 ± 22.4", "unit": "min"}, {"measurement": "AUC(0-inf)", "setting": "[3]; [10]", "result": 771, "unit": "ng·h/mL"}, {"measurement": "AUC(0-t)", "setting": "[3]; [10]", "result": 769, "unit": "ng·h/mL"}, {"measurement": "C0", "setting": "[3]; iv bolus (tail vein) 0.2 mg/kg in water, plasma, n = 8", "result": "712 ± 182", "unit": "ng/mL"}, {"measurement": "C0", "setting": "[3]; iv bolus (tail vein) 0.4 mg/kg in water, plasma, n = 6", "result": "1440 ± 324", "unit": "ng/mL"}, {"measurement": "C0", "setting": "[3]; iv bolus (tail vein) 0.8 mg/kg in water, plasma, n = 7", "result": "3250 ± 904", "unit": "ng/mL"}]}
